Results taken from patent publication US20250282732A1, “NOVEL ESTERS OF 1,2,3,4,4a,5,6,7,8,9,10,10a-DODECAHYDROBENZO[G]QUINOLIN-6-OL COMPOUNDS AND USES THEREOF” (INTEGRATIVE RESEARCH LABORATORIES SWEDEN AB, priority 2022, published 2025).

Legend:
Format in all cases: in vivo, rat
[1] = system: Arc mRNA; assay: Arc mRNA tissue levels in brain regions (real-time PCR); settings: SC, 0.3 and 1 μmol/kg; 60 min after injection; vs controls
Protocol: (§1) Animals were killed 60 min after the injection of the drugs by decapitation.
(§2) The brains were dissected into a left and a right part. The left part was analyzed for gene expression and dissected into 4 different areas:
(§3) Limbic system (containing nucleus accumbens, most parts of the olfactory tubercle, ventral pallidum and amygdala), striatum, frontal cortex, and hippocampus.
(§4) Total RNA was prepared by RNeasy Plus Universal Tissue Mini Kit (Qiagen).
(§5) RNA pellets were dissolved in RNAse-free water and stored at −80° C. The sample concentration was determined spectrophotometrically by a Nanorop ND-1000.
A two-step reversed transcription was performed by using a SuperScript III kit (Invitrogen). 1 μg of total RNA was reversed transcribed with 5 μl 2× RT Reaction Mix, 1 μl RT Enzyme and the mix volume was adjusted to 10 μl with RNAse-free water. The samples were incubated at 25° C. for 10 mi, 50° C. for 30 mi and finally 85° C. for 5 mi. 1 U of E. coli RNase H was added following incubation at 37° C. for 20 mi and 85° C. for 5 minutes. The cDNA solution was diluted 40 times in Tris EDTA buffer solution pH8 (Merck) and stored at −20° C.
Three sequences (arc and two reference genes) were amplified together in a triplex PCR-reaction. For real-time PCR measurements: 5 μl of the cDNA reaction was amplified in a 20 μl reaction mixture containing 10 μl PerfeCTa MultiPlex qPCR SuperMix (Quantabio), 3.5 μl RNAse-free water, 0.15 μM of each primer and 0.1 μM of each probe. Real-time PCR was measured on CFX96 (Bio-Rad) using the following settings for all genes: 3 mi pre-incubation at 95° C. followed by 40 cycles of denaturation at 95° C. for 15s, annealing and elongation at 60° C. for 1 mi. […]
FIG. 5 illustrates the effects on tissue levels of Arc mRNA in four different regions of the brain (limbic regions, striatum, frontal cortex and hippocampus) after subcutaneous administration of two different compounds at two different doses as in comparison to that of corresponding control experiments. The bars in the left half of the figure represent the effects on ARC by the prior art compound according to Preparation 4A ((4aR,10aR)-1-propyl-1,2,3,4,4a,5,8,9,10,10a-decahydrobenzo[g]quinolin-6(7H)-one) and the bars in the right half of the figure represent the effects on ARC by the compound of the present disclosure according to Example 5 oxalic acid salt of ((4aR,10aR)-1-propyl-1,2,3,4,4a,5,6,7,8,9,10,10a-dodecahydrobenzo[g]quinolin-6-yl acetate (Mixture of 6R and 6S epimers). The effects on tissue levels of Arc by both of the two aforementioned compounds were measured at two different doses (0.3 μmol/kg and 1 μmol/kg) and the effect is presented as percent of control means±SEM. Statistical significance was assessed using Student's t-test (2 tailed) vs controls.

[2] = system: non-pre-treated Sprague-Dawley rats; assay: Spontaneous locomotor activity (distance travelled); settings: for effect on motor activity patterns (distance travelled): 0.3 μmol/kg single dose, Preparation 4A SC, Example 5 PO and SC, vs saline, 0-180 min post dosing; for on-set of action (distance travelled increases after the initial decrease): time after administration
Protocol: Behavioral activity was measured using eight Digiscan activity monitors (RXYZM (16) TAO, Omnitech Electronics, Columbus, OH, USA), connected to an Omnitech Digiscan analyzer and an Apple Macintosh computer equipped with a digital interface board (NB DIO-24, National Instruments, USA). Each activity monitor consisted of a quadratic metal frame (W×L=40 cm×40 cm) equipped with photo beam sensors. During measurements of behavioral activity, a rat was put in a transparent acrylic cage (W×L×H, 40×40×30 cm) which in turn was placed in the activity monitor. Each activity monitor was equipped with three rows of infrared photo beam sensors, each row consisting of 16 sensors. Two rows were placed along the front and the side of the floor of the cage, at a 90° angle, and the third row was placed 10 cm above the floor to measure vertical activity. Photo beam sensors were spaced 2.5 cm apart. Each activity monitor was fitted in an identical sound and light attenuating box containing a weak house light and a fan. The computer software was written using object-oriented programming (LabVIEW™, National instruments, Austin, TX, USA). Behavioral data from each activity monitor, representing the position (horizontal center of gravity and vertical activity) of the animal at each time, were recorded at a sampling frequency of 25 Hz and collected using a custom written LABView™ application. The data from each recording session were stored and analyzed with respect to distance traveled. Each behavioral recording session lasted 180 min, starting approximately 5 min after the injection of test compound.
Compounds disclosed herein have been tested for effects on spontaneous locomotor activity in non-pre-treated Sprague-Dawley rats (based on accumulated distance travelled 0-180 min post dosing), and with the single dose of 0.3 μmol/kg (n=5, SC) compared to a control group of animals (n=5) that obtained saline (SC). The prior art compound according to Preparation 4A was administered subcutaneously (SC). The compound according to Example 5 was administered perorally (PO) and subcutaneously (SC), respectively. The unit of the distance travelled is an arbitrary unit.
The animals were placed in the motility meters immediately after administration and locomotor activity was recorded for 180 minutes. Results are presented as distance travelled for the control group (empty bar) and for the group of animals that obtained the drug (filled bar).
The animals were placed in the motility meters immediately after administration and locomotor activity was recorded for 180 minutes. Results are presented as distance travelled for the control group (empty bars) and for the group of animals that obtained the drug (filled bar).

[3] = system: Npas4; assay: Npas4 mRNA tissue levels in brain regions (TaqMan PCR); settings: 60 min after injection; to a greater extent than the prior art compound according to Preparation 4A
Protocol: as §1, §2, §3, §4, §5
A two-step reversed transcription was performed by using a SuperScript III kit (Invitrogen). 1 μg of total RNA was reversed transcribed with 5 μl 2× RT Reaction Mix, 1 μl RT Enzyme and the mix volume was adjusted to 10 μl with RNAse-free water. The samples were incubated at 25° C. for 10 mi, 50° C. for 30 mi and finally 85° C. for 5 mi. […]
EGR-1 (Early growth response qRnoCEP0022872) was analyzed in duplex with the reference gene HPRT (hypoxanthine phosphoribosyltransferase qRnoCEP0050840). Npas4 (neuronal PAS domain protein4 qRnoCEP0029461) was analyzed in singleplex. The reference gene Ppia (cyclophilin A peptidyl-propyl cis-trans isomeraseqRnoCIP0050815) was also analyzed in order to quantify gene expression for genes of interest.

| SMILES | tissue levels of Arc in the frontal cortex [1] | tissue levels of Arc in the limbic regions [1] | effect on motor activity patterns (distance travelled) [2] | duration of action as compared to the prior art compound (trend) ([2]; 0.3 μmol/kg, increase in desired effect observed much later in the experiment) | on-set of action (distance travelled increases after the initial decrease) ([2]; 0.3 μmol/kg) | tissue levels of Npas4 in the limbic regions [3] | immediate effect on motor activity: long distance travelled already within ([2]; 0.3 μmol/kg SC) |
| --- | --- | --- | --- | --- | --- | --- | --- |
| CCCN1CCC[C@@H]2CC3=C(CCCC3OC(C)=O)C[C@H]21.O=C(O)C(=O)O (stereo partly drawn) [Example 5, (4aR,10aR)-1-propyl-1,2,3,4,4a,5,6,7,8,9,10,10a-dodecahydrobenzo[g]quinolin-6-yl acetate] | dose-dependently increase | dose-dependently increases | induce hyperactivity | longer duration of action | 35 to 40 min | increases tissue levels |  |
| CCCN1CCC[C@@H]2CC3=C(CCCC3=O)C[C@H]21 [Preparation 4A, (4aR,10aR)-1-propyl-1,2,3,4,4a,5,8,9,10,10a-decahydrobenzo[g]quinolin-6(7H)-one, reference compound] | dose-dependently increase | does not have | induce hyperactivity |  | 20 to 25 min |  | 20 to 45 min |
